Results on two molecules are retold here after publication PMC9679998 (ACS Chemical Biology, 2022).

In assay [1] the target is T1, adenosine A1 receptor (A1AR) (Homo sapiens, UniProt P30542).
T1 construct: gene ADORA1
T1 sequence (P30542 1-326): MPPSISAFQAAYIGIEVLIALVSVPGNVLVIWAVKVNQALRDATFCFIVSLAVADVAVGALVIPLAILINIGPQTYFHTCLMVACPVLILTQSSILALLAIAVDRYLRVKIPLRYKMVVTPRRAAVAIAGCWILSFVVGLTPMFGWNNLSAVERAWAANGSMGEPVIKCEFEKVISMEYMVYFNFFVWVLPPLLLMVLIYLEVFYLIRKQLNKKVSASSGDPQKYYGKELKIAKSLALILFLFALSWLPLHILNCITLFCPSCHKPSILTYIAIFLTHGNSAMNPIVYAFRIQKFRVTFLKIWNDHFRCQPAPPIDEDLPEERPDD
The assay can be described thus: single-point [3H]DPCPX radioligand displacement at […] ([…]). Background: Displacement assays read how much labelled ligand stays bound in the presence of the test substance.

For assay [2], the target named is T1, adenosine A1 receptor (A1AR). The assay can be described thus: [3H]DPCPX radioligand displacement on CHO-hA1AR membranes with […] h or […] h preincubation (apparent pKi […] and […]), wash-out, gel labeling, pull-down LC-MS/MS. It is filed as binding.

With `C#CCNc1nc(SCCCNC(=O)c2ccc(S(=O)(=O)F)cc2)c(C#N)c(-c2ccc3c(c2)OCO3)c1C#N` [compound 1, 1], the “% displacement at 1 μM” value in assay [1] is on record as ~ 70.

Turning to `C#CCN(CCCSc1nc(N)c(C#N)c(-c2ccc3c(c2)OCO3)c1C#N)C(=O)c1ccc(S(=O)(=O)F)cc1` [compound 4, LUF7909], the Ki in assay [2] was determined as 0.016 µM.
